# According to PMC9963121, “Development of Combretastatin A-4 Analogues as Potential Anticancer Agents with Improved Aqueous Solubility” (Molecules, 2023):
# Tests used:
# AGS gastric cancer cell = experiment: MTT cell growth inhibition assay, AGS gastric cancer cells; type: cell-based; details: Homo sapiens, mean ± SD of three experiments
# Text: (§1) Initially, we designed and synthesised seven compounds—9a and 12a1–12a6—and evaluated the anticancer activity and aqueous solubility. We evaluated the cytotoxic effects of these stilbene nitrile analogues against a panel of four human cancer cell lines (HCT-116, BEL-7402, MCF-7 and AGS) and two human non-cancerous normal cell lines (L-02 and MCF-10A), using CA-4 as a control. The compounds were screened for aqueous solubility in 0.01 M PBS using a high throughput UV method. […] It is possible that the size of the nitrogen heterocycle had little effect on the activity of these compounds. […] The aqueous solubility of all the compounds 12a1–12a6 was higher than that of 9a, particularly that of 12a1 and 12a2 containing piperazine rings. […] Of the six compounds with improved aqueous solubility, 12a1 had the best activity.
# (§2) All human cell lines were used in this study. AGS gastric cancer cell, BEL-7402 liver cancer cell, HCT-116 colorectal cancer cell, L-02 normal liver cell, MCF-7 breast cancer cell, and MCF-10A normal breast cell were initially purchased from American Type Culture Collection (ATCC, Manassas, VA, USA). RPMI-1640 media, DMEM and FBS, were provided by Gibco Company. The cells were maintained in DMEM or RPMI-1640, supplemented with 10% FBS, 100 IU/mL penicillin and […] streptomycin, and at 37 °C in a humidified atmosphere containing 5% CO2.
# (§3) The experiment was carried out according to the method of reference.
# [1] = system: BEL-7402 liver cancer cell; experiment: MTT cell growth inhibition assay, BEL-7402 liver cancer cells; type: cell-based; details: Homo sapiens, mean ± SD of three experiments, read-out: IC50 BEL-7402 Hepatoma Cells
# Text: as §1, §2, §3
# [2] = system: MCF-10A normal breast cell; experiment: MTT cell growth inhibition assay, MCF-10A normal breast cells; type: cell-based; details: Homo sapiens, mean ± SD of three experiments, read-out: IC50 MCF-10A Normal Breast Epithelial Cells
# Text: as §1, §2, §3
# [3] = Drug-plasma protein binding rate, equilibrium dialysis; type: in vitro ADME; details: rat, equilibrium dialysis vs phosphate buffer pH 7.4, 4 °C
# Procedure: Compounds at 90 μM concentration were mixed with rat plasma, and the mixtures were subjected to equilibrium dialysis versus phosphate buffer (pH 7.4) at 4 °C for 48 h. The dialysis membrane of molecular weight cut off 1 kDa was used. Dialysis experiments were done in triplicate. On completion of the dialysis period, absorb a certain amount of buffer and plasma, respectively, and add methanol to treat the sample. Dialysis samples were analysed by HPLC. The plasma protein binding rate of the compound was calculated as follows: protein binding rate/% = (plasma drug concentration inside dialysis bag—dialysate drug concentration outside dialysis bag)/plasma drug concentration inside dialysis bag × 100%. […]
# injection volume was 3 μL. The column temperature was set at 40℃.
# 1.7. The drug-plasma protein binding rate assessment
# Compound 12a1 at 90 μM concentration were mixed with rats plasma. The mixtures were subjected to equilibrium dialysis versus phosphate buffer pH 7.4 buffer at 4℃ for 48 hour using equilibrium dialysis. The dialysis membrane of molecular weight cutoff 1 kDa was used. […] Dialysis samples were analyzed by HPLC, The plasma protein binding rate of the compound was calculated as follows: protein binding rate ∕ % = (plasma drug concentration inside dialysis bag − dialysate drug concentration outside dialysis bag) ∕ plasma drug concentration inside dialysis bag × […]
smiles,measurement,setting,value
COc1cc(/C(C#N)=C/c2ccc(NC(=O)CN3CCN(C)CC3)cc2)cc(OC)c1OC [12a1],IC50,AGS gastric cancer cell,10.7 ± 0.52 µM
same,IC50,[1],6.36 ± 0.61 µM
same,IC50,[2],20.9 ± 0.78 µM
same,"fraction unbound at 48 h, 90 μM",[3],0.393
